Consider two compounds from patent US8071786B2, “Indole compounds useful as serotonin selective agents” (Galenea Corp., priority 2005, dated 2011).

Marks after values point to notes of the source that are not given here.

In one test the target is T1, 5-HT2C (Homo sapiens, UniProt P28335).
T1 sequence (P28335 33-458): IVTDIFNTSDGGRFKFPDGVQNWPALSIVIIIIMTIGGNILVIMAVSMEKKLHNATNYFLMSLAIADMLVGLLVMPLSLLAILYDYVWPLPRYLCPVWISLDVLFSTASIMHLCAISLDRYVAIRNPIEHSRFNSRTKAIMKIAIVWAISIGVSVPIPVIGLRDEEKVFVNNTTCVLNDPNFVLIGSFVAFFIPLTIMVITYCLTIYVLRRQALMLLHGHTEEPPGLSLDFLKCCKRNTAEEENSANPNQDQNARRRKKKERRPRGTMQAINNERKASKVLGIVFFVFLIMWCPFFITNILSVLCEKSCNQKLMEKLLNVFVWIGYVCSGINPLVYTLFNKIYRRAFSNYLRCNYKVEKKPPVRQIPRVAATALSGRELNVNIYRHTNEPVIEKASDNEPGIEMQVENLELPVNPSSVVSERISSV
To be noted: background, literature; cited from earlier work.

Test [1] concerns itch-associated scratching induced by compound 48-80. The experiment in a line: Animal model for OCD: compound 48-80-induced scratching. It is filed as in vivo, male Swiss-Webster mice. On the procedure: (§1) The 5-HT action is at least partly mediated by 5-HT2 receptors in the skin, as shown by blocking with specific antagonists (Yamaguchi, T., Nagasawa, T., Satoh, M., Kuraishi, Y. “Itch-associated Response Induced by Intradermal Serotonin Through 5-HT2 Receptors in Mice” Neurosci. Res. 1999, 35, 77). The effect of test compounds on itch-associated scratching in the mice may indicate their action on 5-HT receptors, and a study was carried out as an animal model for OCD. The subjects were male Swiss-Webster mice, 4-6 weeks old, weighing 25-45 g. Mice were housed 5 per cage, given free access to standard mouse food and water except during experiments, and maintained in a temperature-controlled room (70° F.). Serotonin and all test drugs were made up with ascorbic acid to protect against oxidation. Two mice, one a control, the other experimental, were tested each time. Each mouse was separately placed into a plexiglas box.
Mice were injected subcutaneously between the shoulder blades with either 0.1 ml of serotonin, 0.4 mg per ml in 0.15 M saline plus ascorbic acid, 1 mg/ml, or compound 48-80 (the copolymer product of N-methyl-p-methoxyphenethylamine with formaldehyde), 1.0 mg/ml in saline plus ascorbic acid. Test compounds were injected i.p. 5 minutes before the inducer. The cumulative number of scratches with a hind leg was recorded at 5 minute intervals for 30 minutes. […]

Test [2] in a line: Appetite suppression in mice, acute assay (food consumption). It is filed as in vivo. To be noted: for Mean food consumption 60 min. after injection: g (±SEM) Compound / Mean food consumption 90 min. after injection: g (±SEM) Compound: mice deprived of food 18 hours. The procedure: Mice were deprived of food, but not water, for 18 hours. They were then injected i.p. with test compounds dissolved in 0.9% NaCl containing 1 mg per ml ascorbic acid for protection against oxidation. Each mouse was placed in an individual cage for 30 minutes and then presented with a small petri dish containing a gel made from gelatin, powdered milk and sucrose. The dish was weighed at zero time and at 15-minute intervals for the next hour in order to quantitate food consumption. Controls were injected with saline-ascorbic acid; ±fenfluramine was used as an active control. Control consumption generally ranged from 1.5 to 2.0 grams.

For test [3], the system named is itch-associated scratching induced by serotonin. Kind of test: Animal model for OCD: serotonin-induced scratching. It is filed as in vivo, male Swiss-Webster mice. To be noted: for Number of Scratches as Percentage of Control: inducer Serotonin. On the procedure: as §1
Mice were injected subcutaneously between the shoulder blades with either 0.1 ml of serotonin, 0.4 mg per ml in 0.15 M saline plus ascorbic acid, 1 mg/ml, or compound 48-80 (the copolymer product of N-methyl-p-methoxyphenethylamine with formaldehyde), 1.0 mg/ml in saline plus ascorbic acid. Test compounds were injected i.p. 5 minutes before the inducer. The cumulative number of scratches with a hind leg was recorded at 5 minute intervals for 30 minutes. One saline injected control and one test animal were tested together in each assay.

Test [4] is described as follows: Appetite suppression in mice, chronic assay (body weight). It is filed as in vivo. On the procedure:
Mice were injected i.p. at intervals of 2 or 3 days and weighed repeatedly (6 or 7 total injections). Controls were injected with saline. Weighing and injection were carried out between 11 AM and 1 PM.

The mark [5] stands for this setting: 20 mg/kg i.p. at intervals of 2 or 3 days.
[6] abbreviates: 30 mg/kg i.p. at intervals of 2 or 3 days.

On to `C[C@H](N)Cn1ccc2cc(F)c(Cl)cc21` [Ro 60-0175], for which, on 5-HT2C, the “times more active at 5-HT2C as compared to 5-HT2A” value is 25 times.
For `CN(C)CCc1cn(C)c2c(F)ccc(OP(=O)(O)O)c12` [Compound O-3944, 3-(2-Dimethylaminoethyl)-7-fluoro-1-methyl-1H-indol-4-phosphate], the figures for the “Average Number of Scratches 30 min. after injection” value in test [1] (30 mg/kg i.p. 5 minutes before inducer 48-80), in test [3] (2 mg/kg i.p. 5 minutes before inducer Serotonin) and in test [3] (5 mg/kg i.p. 5 minutes before inducer Serotonin) were 0*, 231.6 and 113.4*, respectively. The “Number of Scratches as Percentage of Control” value in test [1] (30 mg/kg i.p., inducer 48-80) turned out to be 0%; in test [3] (2 mg/kg i.p.), 39.3%; in test [3] (5 mg/kg i.p.) it was 20.2%. In addition, the “% of Control (food consumption 60 min. after injection)” value was 74% in test [2] (10 mg/kg i.p.), 41% in test [2] (20 mg/kg i.p.) and 15% in test [2] (30 mg/kg i.p.). The figures for the “% of Control (food consumption 90 min. after injection)” value in test [2] (10 mg/kg i.p.), in test [2] (20 mg/kg i.p.) and in test [2] (30 mg/kg i.p.) were 75%, 62% and 55%, respectively. Further, the “Mean food consumption 60 min. after injection: g (±SEM) Compound” value in test [2] (10 mg/kg i.p.) is 0.84 (.17) g; in test [2] (20 mg/kg i.p.) it was 0.56 (.10)* g; in test [2] (30 mg/kg i.p.), 0.13 (.05)* g. Also, the “Mean food consumption 90 min. after injection: g (±SEM) Compound” value was 1.38 (.13) g in test [2] (10 mg/kg i.p.), 1.05 (.14)* g in test [2] (20 mg/kg i.p.) and 0.65 (.11)* g in test [2] (30 mg/kg i.p.). The “Day 7 % Δ from starting weight” value is listed as −1.75* % in test [4] (setting [5]) and −3.66* % in test [4] (setting [6]). Further, the “Day 7 Difference within same group” value in test [4] (setting [5]) was -0.78 g; in test [4] (setting [6]), -1.89 g. The “Day 14 % Δ from starting weight” value in test [4] (setting [5]) was −2.04* %; in test [4] (setting [6]) it was −4.13* %. In addition, the “Day 14 Difference within same group” value in test [4] (setting [5]) was -0.91 g; in test [4] (setting [6]) it was -2.13 g.
